# Patent publication US8536202B2, “Triazole-substituted anthranilamides as pesticides” (Bayer Cropscience AG, priority 2010, dated 2013)
# Where two headings read alike, the source gives them in different places.
# Columns and labels:
# Boophilus microplus = Boophilus microplus test (BOOPMI injection); type: in vivo; conditions: Rhipicephalus microplus, 168 h, 20 μg/animal, after 7 days, read-out: activity in % (no fertile eggs laid)
# Protocol: (§1) Solvent: dimethyl sulphoxide
# An appropriate preparation of active compound is prepared by mixing 10 mg of active compound with 0.5 ml of solvent and diluting the concentrate with solvent to the desired concentration. The solution of active compound is injected into the abdomen (Boophilus microplus), and the animals are transferred to dishes and kept in a climatized room. Activity is assessed by deposition of fertile eggs.
# After 7 days, the activity in % is assessed. Here, 100% means that none of the ticks has laid fertile eggs.
# Lucilia cuprina larvae = assay: Lucilia cuprina test (LUCICU); type: in vivo; conditions: 48 h, read-out: kill in %
# Protocol: as §1
# An appropriate preparation of active compound is prepared by mixing 10 mg of active compound with 0.5 ml of dimethyl sulphoxide and diluting the concentrate with water to the desired concentration.
# Vessels containing horse meat treated with the preparation of active compound at the desired concentration are populated with approximately 20 Lucilia cuprina larvae.
# After 2 days, the kill in % is ascertained. Here, 100% means that all of the larvae have been killed; 0% means that no larvae have been killed.
# [1] = system: green peach aphid (Myzus persicae); assay: Myzus test (MYZUPE spray treatment), Use Example 4; type: in vivo; conditions: 144 h, read-out: activity in %
# Outline: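 Compound was formulated in acetone/dimethylformamide with alkylaryl polyglycol ether emulsifier and diluted in emulsifier-containing water. It was sprayed onto Chinese cabbage leaf discs infested with all stages of Myzus persicae. Mortality (%) was scored after 6 days, where 100% means all aphids killed.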
# [2] = system: larvae of the mustard beetle (Phaedon cochleariae); assay: Phaedon test (PHAECO spray treatment); type: in vivo; conditions: 168 h, read-out: activity in %
# Outline: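 Mortality of mustard beetle larvae, expressed as percent killed (100% all, 0% none), assessed 7 days after spraying. Spray liquor made from compound in acetone plus dimethylformamide with alkylaryl polyglycol ether, diluted in emulsifier-containing water to the desired concentration.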
# [3] = system: caterpillars of the armyworm (Spodoptera frugiperda); assay: Spodoptera frugiperda test (SPODFR spray treatment); type: in vivo; conditions: 168 h; for pest or weed control at 100 g/ha: read-out: activity in %
# Outline: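 Percent caterpillar mortality read 7 days after infestation (0% none killed, 100% all killed). Treatment was a spray of the acetone/DMF/emulsifier formulation, water-diluted to test concentration, onto Zea mays leaf discs, allowed to dry before larvae were added.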
# [4] = log P determination by HPLC on reversed-phase columns (EEC Directive 79/831 Annex V.A8); type: physicochemical; conditions: pH 2.7
# Outline: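 Calibration used unbranched alkan-2-ones of 3 to 16 carbons with known log P, values interpolated linearly from retention times between neighbouring standards. Acidic-range LC-MS run at pH 2.7, eluents aqueous and acetonitrile formic acid 0.1%, linear gradient 10% to 95% acetonitrile.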
# [5] = reversed-phase C18 HPLC column, HPLC on reversed-phase columns (C 18), EEC Directive 79/831 Annex V.A8, read-out: logP
"chromatographic logP [4, 5]",SMILES,pest or weed control at 0.02 mg (Boophilus microplus) [%],pest or weed control at 100 ppm (Lucilia cuprina larvae) [%],"pest or weed control at 100 g/ha ([1]; 100 g/ha, after 6 days) [%]","pest or weed control at 100 g/ha ([2]; 100 g/ha, after 7 days) [%]","pest or weed control at 100 g/ha ([3]; 100 g/ha, after 7 days) [%]",chromatographic logP [4],"pest or weed control at 100 ppm (Lucilia cuprina larvae; 100 ppm, after 2 days) [%]",pest or weed control at 100 g/ha [1] [%],pest or weed control at 100 g/ha [2] [%],pest or weed control at 100 g/ha [3] [%],"chromatographic logP ([4]; HPLC on reversed-phase columns (C 18), EEC Directive 79/831 Annex V.A8, read-out: logP)","pest or weed control at 20 g/ha ([3]; 20 g/ha, after 7 days) [%]"
–,CSC[C@H](C)NC(=O)c1cc(Cl)cc(Cl)c1NC(=O)c1cc(Cn2ncc(C(F)(F)F)n2)nn1-c1ncccc1Cl [Example 155],100,100,100,100,100,3.64,–,–,–,–,–,–
3.44,Cc1cc(C#N)cc(C(=O)NC(C)(C)C)c1NC(=O)c1cc(Cn2cc(C(F)(F)F)nn2)nn1-c1ncccc1Br [Example 7],100,–,100,100,100,–,100,–,–,–,–,–
–,Cc1cc(Br)cc(C(=O)NC(C)C)c1NC(=O)c1cc(Cn2ncc(C(F)(F)F)n2)nn1-c1ncccc1Cl [Example 175],100,100,–,100,100,3.55,–,–,–,–,–,–
–,Cc1cc(Br)cc(C(=O)NC2CC2)c1NC(=O)c1cc(Cn2ncc(C(F)(F)F)n2)nn1-c1ncccc1Cl [Example 174],100,100,100,100,100,3.28,–,–,–,–,–,–
–,CNC(=O)c1cc(Cl)cc(C)c1NC(=O)c1cc(Cn2nnc3cc(C(F)(F)F)ccc32)nn1-c1ncccc1Cl [Example 70],100,100,100,100,100,3.13,–,–,–,–,–,–
–,CNC(=O)c1cc(Cl)cc(C)c1NC(=O)c1cc(Cn2ncc(C(F)(F)F)n2)nn1-c1ncccc1Cl [Example 135],100,100,90,100,100,2.99,–,–,–,–,–,–
–,CC(C)(C)NC(=O)c1cc(Cl)cc(Cl)c1NC(=O)c1cc(Cn2ncc(C(F)(F)F)n2)nn1-c1ncccc1Cl [Example 151],100,100,100,100,100,3.8,–,–,–,–,–,–
–,CC(NC(=O)c1cc(Cl)cc(Cl)c1NC(=O)c1cc(Cn2ncc(C(F)(F)F)n2)nn1-c1ncccc1Cl)C1CC1 (centres unmarked) [Example 147],100,100,–,100,100,3.73,–,–,–,–,–,–
–,CSC[C@H](C)NC(=O)c1cc(Cl)cc(C)c1NC(=O)c1cc(Cn2cc(C(F)(F)F)nn2)nn1-c1ncccc1Cl [Example 194],–,–,100,100,100,3.35,–,–,–,–,–,–
–,CCNC(=O)c1cc(Cl)cc(C)c1NC(=O)c1cc(Cn2cc(C(F)(F)F)nn2)nn1-c1ncccc1Cl [Example 189],–,–,80,100,100,2.9,–,–,–,–,–,–
–,Cc1cc(C#N)cc(C(=O)NC(C)C)c1NC(=O)c1cc(Cn2cc(C(F)(F)C(F)(F)F)nn2)nn1-c1ncccc1Cl [Example 320],–,–,100,100,100,3.11,–,–,–,–,–,–
–,Cc1cc(Cl)cc(C(=O)NCC2CC2)c1NC(=O)c1cc(Cn2cc(C(F)(F)C(F)(F)F)nn2)nn1-c1ncccc1Cl [Example 305],–,–,100,100,100,3.55,–,–,–,–,–,–
–,CC(C)(C)NC(=O)c1cc(Cl)cc(Cl)c1NC(=O)c1cc(Cn2cc(C(F)(F)F)nn2)nn1-c1ncccc1Cl [Example 201],–,–,100,100,100,3.42,–,–,–,–,–,–
–,Cc1cc(Cl)cc(C(=O)NCC2CC2)c1NC(=O)c1cc(Cn2ncc(C(F)(F)C(F)(F)F)n2)nn1-c1ncccc1Cl [Example 349],–,–,80,100,100,3.96,–,–,–,–,–,–
4.26,CSC[C@H](C)NC(=O)c1cc(I)cc(C)c1NC(=O)c1cc(Cn2cc(C(F)(C(F)(F)F)C(F)(F)F)nn2)nn1-c1ncccc1Cl [Example 238],–,–,100,100,100,–,–,–,–,–,–,–
–,CSC[C@H](C)NC(=O)c1cc(Cl)cc(C)c1NC(=O)c1cc(Cn2nc(C(F)(F)F)c(C(F)(F)F)n2)nn1-c1ncccc1Cl [Example 408],–,–,90,100,100,4.4,–,–,–,–,–,–
3.08,CNC(=O)c1cc(Cl)cc(C)c1NC(=O)c1cc(Cn2cc(C(F)(F)F)nn2)nn1-c1ccccc1Cl [Example 291],–,–,80,100,100,–,–,–,–,–,–,–
–,Cc1cc(I)cc(C(=O)NC(C)(C)C)c1NC(=O)c1cc(Cn2ncc(C(F)(F)F)n2)nn1-c1ncccc1Cl [Example 162],100,100,–,100,100,4.11,–,–,–,–,–,–
–,Cc1cc(I)cc(C(N)=O)c1NC(=O)c1cc(Cn2ncc(C(F)(F)C(F)(F)C(F)(F)F)n2)nn1-c1ncccc1Cl [Example 381],–,–,–,–,–,–,–,100,100,100,3.7,–
3.75,Cc1cc(C#N)cc(C(=O)NC(C)(C)C)c1NC(=O)c1cc(Cn2cc(C(F)(C(F)(F)F)C(F)(F)F)nn2)nn1-c1ncccc1Cl [Example 220],–,–,100,100,–,–,–,–,–,–,–,100
3.46,CNC(=O)c1cc(C#N)cc(C)c1NC(=O)c1cc(Cn2nncc2C(F)(C(F)(F)F)C(F)(F)F)nn1-c1ccccc1Cl [Example 298],–,–,80,100,100,–,–,–,–,–,–,–
–,Cc1cc(Cl)cc(C(=O)NC(C)C2CC2)c1NC(=O)c1cc(Cn2ncc(C(F)(F)F)n2)nn1-c1ncccc1Cl (centres unmarked) [Example 136],100,100,–,100,100,3.8,–,–,–,–,–,–
–,Cc1cc(C#N)cc(C(=O)NC(C)(C)C)c1NC(=O)c1cc(Cn2nc(C(F)(F)F)c(C(F)(F)F)n2)nn1-c1ncccc1Cl [Example 412],–,–,80,100,100,4.16,–,–,–,–,–,–
2.63,CNC(=O)c1cc(C#N)cc(C)c1NC(=O)c1cc(Cn2cc(C(F)(F)F)nn2)nn1-c1ccccc1Cl [Example 293],–,–,80,100,100,–,–,–,–,–,–,–
–,Cc1cc(Cl)cc(C(=O)NC2CC2)c1NC(=O)c1cc(Cn2ncc(C(F)(F)C(F)(F)F)n2)nn1-c1ncccc1Cl [Example 362],–,–,80,100,100,3.62,–,–,–,–,–,–
–,Cc1cc(Cl)cc(C(=O)NC(C)C)c1NC(=O)c1cc(Cn2ncc(C(F)(F)C(F)(F)F)n2)nn1-c1ncccc1Cl [Example 361],–,–,80,100,100,3.89,–,–,–,–,–,–
–,Cc1cc(I)cc(C(=O)NCC2CC2)c1NC(=O)c1cc(Cn2cc(C(F)(F)C(F)(F)F)nn2)nn1-c1ncccc1Cl [Example 314],–,–,80,100,100,3.8,–,–,–,–,–,–
–,CCNC(=O)c1cc(Cl)cc(C)c1NC(=O)c1cc(Cn2cc(C(F)(F)C(F)(F)F)nn2)nn1-c1ncccc1Cl [Example 302],–,–,80,100,100,3.26,–,–,–,–,–,–
